Measurements as given in article PMC11945486, “TAS1R2/TAS1R3 Single-Nucleotide Polymorphisms Affect Sweet Taste Receptor Activation by Sweeteners: The SWEET Project” (Nutrients, 2025).
No end group written: not given here.

Target: T1, human TAS1R2-WT/TAS1R3-S551N (Homo sapiens, UniProt Q7RTX0+Q8TE23, S551N)
T1 construct: expressed in transfected cells; host or cells: HEK293T stably expressing Gα16gust44
T1 sequence (Q8TE23 20-839): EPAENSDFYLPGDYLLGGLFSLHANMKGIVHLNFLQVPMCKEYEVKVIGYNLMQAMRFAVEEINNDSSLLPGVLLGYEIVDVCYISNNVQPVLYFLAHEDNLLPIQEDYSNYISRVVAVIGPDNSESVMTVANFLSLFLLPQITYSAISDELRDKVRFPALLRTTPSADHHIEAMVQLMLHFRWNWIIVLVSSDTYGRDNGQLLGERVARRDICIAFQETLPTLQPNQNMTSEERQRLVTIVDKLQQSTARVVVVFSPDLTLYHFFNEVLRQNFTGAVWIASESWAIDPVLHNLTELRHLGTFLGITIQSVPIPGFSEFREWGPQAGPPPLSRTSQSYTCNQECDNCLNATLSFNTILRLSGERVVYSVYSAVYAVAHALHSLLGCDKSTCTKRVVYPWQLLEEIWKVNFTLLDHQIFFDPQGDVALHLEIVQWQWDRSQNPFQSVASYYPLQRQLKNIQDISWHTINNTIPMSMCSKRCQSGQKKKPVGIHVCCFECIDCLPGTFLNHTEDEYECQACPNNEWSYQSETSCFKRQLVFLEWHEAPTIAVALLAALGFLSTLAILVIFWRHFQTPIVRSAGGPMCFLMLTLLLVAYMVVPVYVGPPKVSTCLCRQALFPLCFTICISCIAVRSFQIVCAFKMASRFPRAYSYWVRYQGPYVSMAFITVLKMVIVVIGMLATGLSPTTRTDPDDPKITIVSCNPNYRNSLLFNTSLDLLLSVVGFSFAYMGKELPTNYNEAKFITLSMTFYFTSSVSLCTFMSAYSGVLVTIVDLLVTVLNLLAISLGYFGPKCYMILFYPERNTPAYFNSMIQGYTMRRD
T1 sequence (Q7RTX0 21-852 S551N): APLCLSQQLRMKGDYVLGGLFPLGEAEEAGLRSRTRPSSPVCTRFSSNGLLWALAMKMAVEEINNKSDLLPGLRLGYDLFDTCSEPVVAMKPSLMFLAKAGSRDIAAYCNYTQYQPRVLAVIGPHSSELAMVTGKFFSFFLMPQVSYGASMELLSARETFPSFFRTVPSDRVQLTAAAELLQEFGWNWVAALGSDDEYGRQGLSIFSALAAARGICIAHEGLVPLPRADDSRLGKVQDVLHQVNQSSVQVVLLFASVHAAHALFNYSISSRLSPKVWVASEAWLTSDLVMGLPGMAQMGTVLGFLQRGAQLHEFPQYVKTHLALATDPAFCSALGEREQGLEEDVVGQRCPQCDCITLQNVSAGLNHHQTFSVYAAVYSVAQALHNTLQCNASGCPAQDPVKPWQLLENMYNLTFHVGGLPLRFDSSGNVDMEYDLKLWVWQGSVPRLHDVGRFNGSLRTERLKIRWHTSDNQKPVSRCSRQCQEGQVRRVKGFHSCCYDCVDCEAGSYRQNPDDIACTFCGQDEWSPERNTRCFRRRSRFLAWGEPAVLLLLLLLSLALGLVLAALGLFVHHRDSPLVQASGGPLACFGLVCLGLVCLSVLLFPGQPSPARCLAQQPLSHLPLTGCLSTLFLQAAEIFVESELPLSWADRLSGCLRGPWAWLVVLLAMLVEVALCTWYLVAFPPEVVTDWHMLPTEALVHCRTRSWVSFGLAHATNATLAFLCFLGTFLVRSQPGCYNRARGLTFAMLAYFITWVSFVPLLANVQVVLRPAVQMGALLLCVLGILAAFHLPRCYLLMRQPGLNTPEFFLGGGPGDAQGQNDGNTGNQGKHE
Experiment: Calcium mobilisation assay, TAS1R2-WT with TAS1R3 variant S551N
Assay type: cell-based
Conditions: for Max ΔF/F0: maximal signal amplitude; for Max ΔF/F0 / EC50: "-": no activation
Text: The coding sequences for TAS1R2 and TAS1R3 were commercially synthesised, and the human codon was optimised for expression in human cells. The coding sequences of human TAS1R2 and TAS1R3 were subcloned and inserted into the mammalian expression vectors pcDNA6/myc-HisA and pcDNA4/myc-HisA (Invitrogen; Thermo Fisher Scientific; Illkirch, France) between the EcoRI and NotI restriction sites, generating the plasmids pcDNA6-TAS1R2 and pcDNA4-TAS1R3, respectively. To increase protein expression in mammalian cells, an upstream start codon was used, which was a sequence called MAX, corresponding to the QBI SP163 element also described in pcDNA4-HisMax (Invitrogen; Thermo Fisher Scientific; Illkirch, France). To measure the expression level of the receptor by immunohistochemistry, we used the FLAG sequence ([…]) in the C-terminal position, which encodes the FLAG tag epitope. SNP variants of TAS1R2 and TAS1R3 were constructed based on […], respectively, using site-directed mutagenesis (Genewiz; Leipzig, Germany).
The HEK293T cells were kindly provided by Jay P. Slack (Givaudan Flavors Corporation; Cincinnati, OH, USA). HEK293T cells stably transfected with Gα16gust44 [43, 67] were seeded in poly-D-lysine-coated clear-bottom black 96-well plates (0.35 × 10^5 cells/well) in high-glucose DMEM supplemented with 2 mM GlutaMAX, 10% dialysed foetal bovine serum with penicillin/streptomycin and G418 (400 μg/mL) at 37 °C and 6.3% CO2 in a humidified atmosphere as previously reported. […] As a negative control, HEK293T cells were mock-transfected with the empty expression vector. After a further 24 h of incubation, the HEK293T cells were washed with C1 buffer (130 mM NaCl, 5 mM KCl, 10 mM HEPES pH 7.4 and 2 mM CaCl2). The 96-well plates containing the cells were then stimulated with sweet-tasting compounds. […] Different concentration ranges were tested depending on the sweet compound injected. The Ca^2+ changes were expressed as fractional changes in fluorescent light intensity: ΔF/F = (F − F0)/F0, where F was the fluorescent light intensity at each point, and F0 was the value of emitted fluorescent light prior to stimulus application. To calculate dose–response relationships, the changes in fluorescence upon stimulus application were averaged, mock-subtracted and baseline-corrected. The dose–response data obtained were adjusted using a 4-parameter logistic equation. The half-maximal effective concentrations (EC50 values) and maximal signal amplitudes were calculated using SigmaPlot software (version 15.0) (Systat Software; San Jose, CA, USA).
For in vitro calcium mobilisation assay performed on hTAS1R2-SNPs, hTAS1R3-SNPs and mTAS1R3-I60T, 6 to 7 concentrations were tested for each sweet compound, plus buffer alone. All concentration–receptor combinations were measured in duplicate, and each experiment was repeated at least 4 times (8 wells/concentration). Results were expressed for each concentration as ΔF/F mean ± SEM and represented as dose–response curves.

C[C@H](CC[C@@H](O[C@@H]1O[C@H](CO[C@@H]2O[C@H](CO)[C@@H](O)[C@H](O)[C@H]2O)[C@@H](O)[C@H](O)[C@H]1O[C@@H]1O[C@H](CO)[C@@H](O)[C@H](O)[C@H]1O)C(C)(C)O)[C@H]1CC[C@@]2(C)[C@@H]3CC=C4[C@@H](CC[C@H](O[C@@H]5O[C@H](CO[C@@H]6O[C@H](CO)[C@@H](O)[C@H](O)[C@H]6O)[C@@H](O)[C@H](O)[C@H]5O)C4(C)C)[C@]3(C)[C@H](O)C[C@]12C [Mogroside V, mogroside V]
R1 = Variant EC50/WT EC50: 3.6 | Max ΔF/F0: 0.03

C=C(C)[C@@H]1CC=C(/C=N/O)CC1 [Perillartine, perillartine]
R1 = Variant EC50/WT EC50: 3.6 | EC50: 49.2 ± 13.6 µM | Max ΔF/F0: 0.52 ± 0.04

brazzein (QDKCKKVYENYPVSKCQLANQCNYDCKLDKHARSGECFYDEKRNLQCICDYCEY; ends and bridges not checked; cysteine pairing not given here; UniProt P56552 1-54, looked up) [sweet-tasting protein obtained by recombinant production using the yeast Pichia pastoris]
R1 = Variant EC50/WT EC50: 21.1 | Max ΔF/F0: 0.21 ± 0.21

thaumatin
R1 = Variant EC50/WT EC50: 1.7 | Max ΔF/F0: 0.25 ± 0.01

B1: thaumatin (protein)
chain: ATFEIVNRCSYTVWAAASKGDAALDAGGRQLNSGESWTINVEPGTKGGKIWARTDCYFDDSGSGICKTGDCGGLLRCKRFGRPPTTLAEFSLNQYGKDYIDISNIKGFNVPMDFSPTTRGCRGVRCAADIVGQCPAKLKAPGGGCNDACTVFQTSEYCCTTGKCGPTEYSRFFKRLCPDAFSYVLDKPTTVTCPGSSNYRVTFCPTA
modifications: Eight disulfides
notes: sweet-tasting plant protein, E957
EC50: 17.4 ± 2.2 µM
